Test results as given in US11873303B2, “Substituted pyrazoles as type II IRAK inhibitors” (Merck Patent GmbH, priority 2018, dated 2024).
Each block holds one molecule with its values, some of them ahead of it.

Assays:
[1] = target: T1, IRAK1 (human purified recombinant enzyme His-TEV-IRAK1 (194-712)) (Homo sapiens, UniProt P51617); test: IRAK1 enzymatic assay (ADP-Glo luminescence); assay type: biochemical; conditions: human recombinant IRAK1, ATP 1 μM
T1 construct: His-TEV-IRAK1 (194-712); His (N); TEV cleavage site (N)
Description: IRAK1 is a human purified recombinant enzyme (His-TEV-IRAK1 (194-712)). In this assay, IRAK1 hydrolysed ATP and autophosphorylated. Measurement of IRAK-1 inhibition was performed in 384-well format based on luminescence assay (ADP-Glo™ Kinase Assay from Promega). Purified human recombinant IRAK1 (0.3 μg/ml) and serial diluted compounds in DMSO (range of concentration from 10 μM to 0.5 nM) or controls (1% DMSO) were incubated for 15 minutes at RT in assay buffer containing 50 mM Hepes pH 7.0, Fatty acid-free BSA 0.1%, Dithiothreitol (DTT) 2 mM, MgCl2 10 mM, EGTA 0.5 mM, Triton X-100 0.01%. The kinase reaction was then initiated by the addition of ATP at a concentration of 1 μM. After 2 hours of incubation at RT, the reaction was stopped and the unconsumed ATP depleted by the addition of ADP-Glo™ Reagent according to supplier instructions. After 40 minutes of incubation at RT, the Kinase Detection Reagent was then added to the assay plate according to supplier instructions. After 20 minutes of incubation at RT, the luminescence signal was measured with a luminometer (PerkinElmer Envision or equivalent reader).

[2] = system: TLR7 induced IL-6 secretion in human mononuclear cells (PBMC's); test: TLR7 induced IL-6 in human PBMC's; assay type: cell-based; conditions: TLR7 ligand 2 uM overnight, IL-6 AlphaLISA
Description: TLR7 Induced IL-6 in Human PBMC's
Human PBMC assay was used as one of the functional assays to monitor the activity of IRAK1 and IRAK4 small molecule inhibitors on TLR7 induced IL-6 secretion in human mononuclear cells (PBMC's). Human PBMCs were prepared from buffy coats (whole blood enriched with leukocytes and platelets) obtained from healthy volunteers used either fresh or frozen were plated in assay media (RPMI+2% P/S/L-glu+10% HI-FBS) and pre-treated with compounds in DMSO/media (range of concentrations from 25 uM to 0.4 nM) or controls (0.25% DMSO) for 30 minutes at 37° C. in assay media. Following pre-treatment with IRAK1 and IRAK4 inhibitors, PBMC's were stimulated with TLR7 specific ligand (2 uM) overnight (16-18 hrs) at 37° C. After incubation supernatant was transferred to 384 well PE AlphaPlate-384 and IL-6 was quantified using Perkin Elmer IL-6 Alpha LISA kit (AL223C). Plates were read on an Envision® plate reader with Alpha Technology®.

[3] = target: T2, IRAK4 (human purified recombinant enzyme His-TEV-IRAK4 (1-460)) (Homo sapiens, UniProt Q9NWZ3); test: IRAK4 enzymatic assay (ADP-Glo luminescence); assay type: biochemical; conditions: human recombinant IRAK4, ATP 2 μM, STK1-biotin peptide
T2 construct: His-TEV-IRAK4 (1-460); His (N); TEV cleavage site (N)
T2 sequence (Q9NWZ3 1-460): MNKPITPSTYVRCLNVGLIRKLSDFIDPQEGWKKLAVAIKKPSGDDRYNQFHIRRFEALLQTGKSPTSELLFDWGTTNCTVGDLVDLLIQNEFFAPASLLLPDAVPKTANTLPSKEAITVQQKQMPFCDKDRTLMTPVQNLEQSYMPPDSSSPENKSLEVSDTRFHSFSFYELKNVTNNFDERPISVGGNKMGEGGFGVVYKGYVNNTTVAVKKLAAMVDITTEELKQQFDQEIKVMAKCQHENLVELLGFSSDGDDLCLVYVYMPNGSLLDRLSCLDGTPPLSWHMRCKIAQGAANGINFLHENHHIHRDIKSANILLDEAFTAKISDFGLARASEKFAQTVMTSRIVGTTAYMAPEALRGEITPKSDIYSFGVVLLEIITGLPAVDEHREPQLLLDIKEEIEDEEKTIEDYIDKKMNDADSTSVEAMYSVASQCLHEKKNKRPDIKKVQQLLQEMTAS
Description: IRAK4 is a human purified recombinant enzyme (His-TEV-IRAK4 (1-460)). In this assay, IRAK4 hydrolysed ATP, autophosphorylated and phosphorylated a Serine/Threonine generic peptidic substrate (STK: 61ST1BLC from CisBio International). Measurement of IRAK-4 inhibition was performed in 384-well format based on a luminescence assay (ADP-Glo™ Kinase Assay from Promega). Purified human recombinant IRAK4 (0.3 μg/ml) and serial diluted compounds in DMSO (range of concentration from 10 μM to 0.5 nM) or controls (1% DMSO) were incubated for 15 minutes at RT in assay buffer containing 50 mM Hepes pH 7.0, Fatty acid-free BSA 0.1%, Dithiothreitol (DTT) 2 mM, MgCl2 10 mM, EGTA 0.5 mM, Triton X-100 0.01%, MnCl2 5 mM. The kinase reaction was then initiated by the addition of ATP (2 μM) and the peptidic substrate STK1-biotin peptide (300 nM). After 2 hours of incubation at RT, the reaction was stopped and the unconsumed ATP depleted by the addition of ADP-Glo™ Reagent according to supplier instructions. After 40 minutes of incubation at RT, the Kinase Detection Reagent was then added to the assay plate according to supplier instructions. After 20 minutes of incubation at RT, the luminescence signal was measured with a plate-reading luminometer (PerkinElmer Envision or equivalent reader).

T1 sequence (P51617 194-712): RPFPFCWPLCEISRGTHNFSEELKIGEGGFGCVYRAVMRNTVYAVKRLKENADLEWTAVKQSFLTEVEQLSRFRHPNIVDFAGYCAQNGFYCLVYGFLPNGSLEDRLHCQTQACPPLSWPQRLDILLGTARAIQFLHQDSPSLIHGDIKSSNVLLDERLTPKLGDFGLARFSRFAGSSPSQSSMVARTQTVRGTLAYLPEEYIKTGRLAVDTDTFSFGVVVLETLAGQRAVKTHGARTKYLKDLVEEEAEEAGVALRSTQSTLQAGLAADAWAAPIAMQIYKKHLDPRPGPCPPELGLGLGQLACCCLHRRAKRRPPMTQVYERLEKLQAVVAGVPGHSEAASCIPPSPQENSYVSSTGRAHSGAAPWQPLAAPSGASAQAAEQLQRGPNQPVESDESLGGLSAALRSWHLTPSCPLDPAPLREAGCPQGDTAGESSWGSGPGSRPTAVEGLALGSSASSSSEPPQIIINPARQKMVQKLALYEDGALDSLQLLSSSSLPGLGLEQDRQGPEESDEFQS

- IC50 [1]: < 100 nM
- IC50 [3]: < 100 nM
SMILES: CC(C)c1ccc(-n2nc(C(C)(C)C)cc2NC(=O)Nc2ccc(-c3nn(C)c4ncnc(N)c34)cc2F)cc1 [Example 9, 1-(4-{4-amino-1-methyl-1H-pyrazolo[3,4-d]pyrimidin-3-yl}-2-fluorophenyl)-3-{3-tert-butyl-1-[4-(propan-2-yl)phenyl]-1H-pyrazol-5-yl}urea]
- IC50 [2]: < 100 nM

- IC50 [1]: 100 to 1000 nM
- IC50 [3]: 1000 to 5000 nM
SMILES: Cc1ccc(-n2nc(C(C)(C)C#N)cc2NC(=O)Nc2ccc(-c3csc4ncnc(N)c34)cc2Cl)cc1 [Example 22, 1-[4-(4-Amino-thieno[2,3-d]pyrimidin-5-yl)-2-chloro-phenyl]-3-[5-(cyano-dimethyl-methyl)-2-p-tolyl-2H-pyrazol-3-yl]-urea]
- IC50 [2]: > 5000 nM

- IC50 [1]: < 100 nM
- IC50 [3]: 1000 to 5000 nM
SMILES: Cc1ccc(-n2nc(C(C)(C)C)cc2NC(=O)Nc2ccc(-c3csc4ncnc(N)c34)cc2Cl)cc1 [Example 11, 1-[4-(4-Amino-thieno[2,3-d]pyrimidin-5-yl)-2-chloro-phenyl]-3-(5-tert-butyl-2-p-tolyl-2H-pyrazol-3-yl)-urea]
- IC50 [2]: < 100 nM

- IC50 [1]: < 100 nM
- IC50 [3]: 100 to 1000 nM
SMILES: CC(C)c1ccc(-n2nc(C(C)(C)C)cc2NC(=O)Nc2ccc(-c3nn(C)c4ncnc(N)c34)cc2)cc1 [Example 1, 1-(4-{4-amino-1-methyl-1H-pyrazolo[3,4-d]pyrimidin-3-yl}phenyl)-3-{3-tert-butyl-1-[4-(propan-2-yl)phenyl]-1H-pyrazol-5-yl}urea]
- IC50 [2]: < 100 nM

- IC50 [1]: < 100 nM
- IC50 [3]: < 100 nM
SMILES: Cc1ccc(-n2nc(C(C)(C)C)cc2NC(=O)Nc2ccc(-c3nn(C)c4ncnc(N)c34)c(F)c2)cc1 [Example 2, 1-[4-(4-Amino-1-methyl-1H-pyrazolo[3,4-d]pyrimidin-3-yl)-3-fluoro-phenyl]-3-(5-tert-butyl-2-p-tolyl-2H-pyrazol-3-yl)-urea]
- IC50 [2]: < 100 nM

- IC50 [1]: < 100 nM
- IC50 [3]: 100 to 1000 nM
SMILES: CC(C)c1ccc(-n2nc(C(C)(C)C)cc2NC(=O)Nc2ccc(-c3nn(C)c4ncnc(N)c34)c(F)c2)cc1 [Example 3, 1-[4-(4-Amino-1-methyl-1H-pyrazolo[3,4-d]pyrimidin-3-yl)-3-fluoro-phenyl]-3-[5-tert-butyl-2-(4-isopropyl-phenyl)-2H-pyrazol-3-yl]-urea]
- IC50 [2]: < 100 nM

- IC50 [1]: < 100 nM
- IC50 [3]: 100 to 1000 nM
SMILES: Cc1ccc(-n2nc(C(C)(C)C)cc2NC(=O)Nc2ccc(-c3nn(C)c4ncnc(N)c34)cc2Cl)cc1F [Example 29, 1-[4-(4-Amino-1-methyl-1H-pyrazolo[3,4-d]pyrimidin-3-yl)-2-chloro-phenyl]-3-[5-tert-butyl-2-(3-fluoro-4-methyl-phenyl)-2H-pyrazol-3-yl]-urea]

- IC50 [1]: < 100 nM
- IC50 [3]: 100 to 1000 nM
SMILES: Cn1nc(-c2ccc(NC(=O)Nc3cc(C(C)(C)C)nn3-c3ccc(C#N)cc3)c(Cl)c2)c2c(N)ncnc21 [Example 28, 1-(4-{4-amino-1-methyl-1H-pyrazolo[3,4-d]pyrimidin-3-yl}-2-chlorophenyl)-3-[3-tert-butyl-1-(4-cyanophenyl)-1H-pyrazol-5-yl]urea]

Further lines, the molecule ahead of its results:

SMILES: Cc1ccc(-n2nc(C(C)(C)C)cc2NC(=O)C(=O)c2ccc(-c3nn(C)c4ncnc(N)c34)cc2)cc1 [Example 20, 2-[4-(4-Amino-1-methyl-1H-pyrazolo[3,4-d]pyrimidin-3-yl)-phenyl]-N-(5-tert-butyl-2-p-tolyl-2H-pyrazol-3-yl)-2-oxo-acetamide]
- IC50 [1]: < 100 nM
- IC50 [2]: 1000 to 5000 nM
- IC50 [3]: < 100 nM

SMILES: Cc1ccc(-n2nc(C(C)(C)C)cc2NC(=O)Nc2ccc(-c3nn(C)c4ccnc(N)c34)cc2F)cc1 [Example 26, 1-[4-(4-Amino-1-methyl-1H-pyrazolo[4,3-c]pyridin-3-yl)-2-fluoro-phenyl]-3-(5-tert-butyl-2-p-tolyl-2H-pyrazol-3-yl)-urea]
- IC50 [1]: < 100 nM
- IC50 [2]: < 100 nM
- IC50 [3]: 100 to 1000 nM

SMILES: Cc1ccc(-n2nc(C(C)(C)C)cc2NC(=O)Nc2ccc(-c3csc4ncnc(N)c34)cc2)cc1 [Example 12, 1-[4-(4-Amino-thieno[2,3-d]pyrimidin-5-yl)-phenyl]-3-(5-tert-butyl-2-p-tolyl-2H-pyrazol-3-yl)-urea]
- IC50 [1]: < 100 nM
- IC50 [2]: < 100 nM
- IC50 [3]: 100 to 1000 nM

SMILES: CC(C)c1ccc(-n2nc(C(C)(C)C)cc2NC(=O)Nc2ccc(-c3nn(C)c4ccnc(N)c34)cc2)cc1 [Example 14, 1-[4-(4-Amino-1-methyl-1H-pyrazolo[4,3-c]pyridin-3-yl)-phenyl]-3-[5-tert-butyl-2-(4-isopropyl-phenyl)-2H-pyrazol-3-yl]-urea]
- IC50 [1]: < 100 nM
- IC50 [2]: < 100 nM
- IC50 [3]: 100 to 1000 nM

SMILES: Cc1ccc(-n2nc(C(C)(C)C)cc2NC(=O)C(O)c2ccc(-c3nn(C)c4ncnc(N)c34)cc2)cc1 (stereo not drawn) [Example 19, 2-[4-(4-Amino-1-methyl-1H-pyrazolo[3,4-d]pyrimidin-3-yl)-phenyl]-N-(5-tert-butyl-2-p-tolyl-2H-pyrazol-3-yl)-2-hydroxy-acetamide]
- IC50 [1]: < 100 nM
- IC50 [2]: 100 to 1000 nM
- IC50 [3]: 100 to 1000 nM

SMILES: Cc1ccc(-n2nc(C(C)(C)C)cc2NC(=O)Nc2ccc(-c3csc4ncnc(N)c34)c(F)c2)cc1 [Example 6, 1-[4-(4-Amino-thieno[2,3-d]pyrimidin-5-yl)-3-fluoro-phenyl]-3-(5-tert-butyl-2-p-tolyl-2H-pyrazol-3-yl)-urea]
- IC50 [1]: < 100 nM
- IC50 [2]: < 100 nM
- IC50 [3]: 100 to 1000 nM

SMILES: Cc1ccc(-n2nc(C(C)(C)C)cc2NC(=O)Nc2ccc(-c3csc4ncnc(N)c34)c(F)c2Cl)cc1 [Example 23, 1-[4-(4-Amino-thieno[2,3-d]pyrimidin-5-yl)-2-chloro-3-fluoro-phenyl]-3-(5-tert-butyl-2-p-tolyl-2H-pyrazol-3-yl)-urea]
- IC50 [1]: < 100 nM
- IC50 [2]: < 100 nM
- IC50 [3]: 1000 to 5000 nM

SMILES: Cc1ccc(-n2nc(C(C)(C)C)cc2NC(=O)NC2CC=C(c3cn(C)c4ncnc(N)c34)CC2)cc1 (stereo not drawn) [Example 25, 1-[4-(4-Amino-7-methyl-7H-pyrrolo[2,3-d]pyrimidin-5-yl)-cyclohex-3-enyl]-3-(5-tert-butyl-2-p-tolyl-2H-pyrazol-3-yl)-urea]
- IC50 [1]: < 100 nM
- IC50 [3]: < 100 nM

SMILES: Cc1ccc(-n2nc(C(C)(C)C(F)(F)F)cc2NC(=O)Nc2ccc(-c3csc4ncnc(N)c34)cc2Cl)cc1 [Example 24, 1-[4-(4-Amino-thieno[2,3-d]pyrimidin-5-yl)-2-chloro-phenyl]-3-[2-p-tolyl-5-(2,2,2-trifluoro-1,1-dimethyl-ethyl)-2H-pyrazol-3-yl]-urea]
- IC50 [1]: < 100 nM
- IC50 [2]: < 100 nM
- IC50 [3]: 100 to 1000 nM
